Results on 29 compounds are retold here after US12655120B2, “GPR52 modulator compounds” (NXERA PHARMA UK LIMITED, priority 2020, dated 2026).

For the assay, the target named is T1, human GPR52 (Homo sapiens, UniProt Q9Y2T5).
T1 construct: expressed in transfected cells; host or cells: HEKf suspension cells infected with BacMam virus
Briefly: GPR52 Agonist Functional cAMP Assay. It counts as cell-based. The following applies: for EC50: HEKf cells infected with human GPR52 BacMam, HTRF cAMP, 30 min at 37° C., read-out: pEC50 average (converted); for Emax: normalised to DMSO (0%) and maximal compound 7m (J. Med. Chem., 2014, 57, 5226) response (100%). The procedure: HEKf suspension cells were infected for 24 h with 0.1% v/v human GPR52 expressing BacMam virus, a modified baculovirus designed for mammalian gene expression. Following BacMam infection, cells were pelleted by centrifugation (335 g, 5 min), resuspended in cell freezing medium (Sigma) and frozen at −150° C. until required. On experiment day, 25 nL GPR52 compound dilutions, prepared in DMSO, were stamped onto proxiplates (PerkinElmer) by a LabCyte ECHO acoustic dispenser. Frozen cells were thawed and resuspended in assay stimulation buffer (Cisbio) containing 0.5 mM 3-iso-butyl-1-methylxanthine (IBMX, Sigma) to achieve a density of 2000 cells per well. 10 μl cells were added to assay plates using a Multidrop Combi Reagent Dispenser (ThermoFisher) before centrifugation (335 g, 1 min). Cells were incubated with compounds at 37° C. for 30 min prior to addition of cAMP detection reagents (HiRange cAMP kit, Cisbio) which were prepared according to the manufacturer's instructions. Plates were shaken for 1 h at room temperature before reading on a PHERAstar FS plate reader (BMG Labtech) using standard HTRF settings. HTRF ratios were obtained by dividing the acceptor emissions (665 nm) by the donor emissions (620 nm) and multiplying by 10,000.
A general note: In TR-FRET formats the signal depends on donor and acceptor labels being close together.

As usually defined, the Emax is the maximal effect, on the per cent scale that the assay sets.

T1 sequence (Q9Y2T5 whole entry): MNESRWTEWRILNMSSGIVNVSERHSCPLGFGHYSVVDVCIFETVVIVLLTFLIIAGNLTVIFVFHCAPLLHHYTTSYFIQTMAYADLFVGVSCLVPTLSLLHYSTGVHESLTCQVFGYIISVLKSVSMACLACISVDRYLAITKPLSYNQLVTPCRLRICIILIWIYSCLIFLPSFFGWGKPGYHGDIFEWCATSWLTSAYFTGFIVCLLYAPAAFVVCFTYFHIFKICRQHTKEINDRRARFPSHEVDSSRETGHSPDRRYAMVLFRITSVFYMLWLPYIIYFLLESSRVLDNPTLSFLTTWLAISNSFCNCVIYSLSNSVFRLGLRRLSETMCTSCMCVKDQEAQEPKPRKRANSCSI

For the compound `Cc1c(C(N)=O)c(CO)nn1-c1cc(Cc2cc(F)cc(C(F)(F)F)c2)ccn1` [Example 53, 1-(4-(3-fluoro-5-(trifluoromethyl)benzyl)pyridin-2-yl)-3-(hydroxymethyl)-5-methyl-1H-pyrazole-4-carboxamide], the EC50 is 79.4 nM and the Emax amounted to 97%.

`NC(=O)c1cn(-c2cccc(Cc3cc(F)cc(C(F)(F)F)c3)n2)nc1CO` [Example 47, 1-(6-(3-fluoro-5-(trifluoromethyl)benzyl)pyridin-2-yl)-3-(hydroxymethyl)-1H-pyrazole-4-carboxamide]: the EC50 was 501 nM and the Emax worked out at 52%.

On to `NC(=O)c1cn(-c2ccnc(Cc3cc(F)cc(C(F)(F)F)c3)c2)nc1C1CC1` [Example 27, 3-cyclopropyl-1-(2-(3-fluoro-5-(trifluoromethyl)benzyl)pyridin-4-yl)-1H-pyrazole-4-carboxamide], for which the EC50 is 25.1 nM and the Emax was found to be 97%.

With `Cc1nn(-c2cc(Cc3cc(F)cc(C(F)F)c3)ccn2)cc1C(N)=O` [Example 37, 1-(4-(3-(difluoromethyl)-5-fluorobenzyl)pyridin-2-yl)-3-methyl-1H-pyrazole-4-carboxamide], the EC50 was 79.4 nM and the maximal effect (Emax) stood at 96%.

As to `NC(=O)c1cn(-c2ccnc(Cc3cc(F)cc(C(F)(F)F)c3)c2)nc1C(F)(F)F` [Example 24, 1-(2-(3-fluoro-5-(trifluoromethyl)benzyl)pyridin-4-yl)-3-(trifluoromethyl)-1H-pyrazole-4-carboxamide], the EC50 is 25.1 nM and the maximal response (Emax) came to 91%.

For `Cc1nn(-c2cc(Cc3cc(F)cc(C(F)(F)F)c3)ccn2)c(CO)c1C(=O)NCCO` [Example 40, 1-(4-(3-fluoro-5-(trifluoromethyl)benzyl)pyridin-2-yl)-N-(2-hydroxyethyl)-5-(hydroxymethyl)-3-methyl-1H-pyrazole-4-carboxamide], the Emax came out at 101%.

In the case of `Cc1nn(-c2ccnc(Cc3cc(F)cc(C(F)(F)F)c3)c2)cc1C(=O)NC1COC1` [Example 19, 1-(2-(3-fluoro-5-(trifluoromethyl)benzyl)pyridin-4-yl)-3-methyl-N-(oxetan-3-yl)-1H-pyrazole-4-carboxamide], the EC50 was 15.8 nM and the Emax is 99%.

With `CNC(=O)c1nn(-c2cc(Cc3cc(F)cc(C(F)(F)F)c3)ccn2)nc1C` [Example 58, 2-(4-(3-fluoro-5-(trifluoromethyl)benzyl)pyridin-2-yl)-N,5-dimethyl-2H-1,2,3-triazole-4-carboxamide], the EC50 was 15.8 nM and the Emax worked out at 92%.

The compound `Cc1nn(-c2ccnc(Cc3cc(F)cc(C(F)(F)F)c3)c2)c(CO)c1C(N)=O` [Example 41, 1-(2-(3-fluoro-5-(trifluoromethyl)benzyl)pyridin-4-yl)-5-(hydroxymethyl)-3-methyl-1H-pyrazole-4-carboxamide] had an Emax of 98%.

For the compound `COc1nn(-c2cc(Cc3cc(F)cc(C(F)(F)F)c3)ccn2)cc1C(N)=O` [Example 14, 1-(4-(3-fluoro-5-(trifluoromethyl)benzyl)pyridin-2-yl)-3-methoxy-1H-pyrazole-4-carboxamide], the EC50 is 31.6 nM and the Emax came to 95%.

As to `COc1nn(-c2ccnc(Cc3cc(F)cc(C(F)(F)F)c3)c2)cc1C(N)=O` [Example 11, 1-(2-(3-fluoro-5-(trifluoromethyl)benzyl)pyridin-4-yl)-3-methoxy-1H-pyrazole-4-carboxamide], the EC50 was 251 nM and the Emax was 86%.

As to `CNC(=O)c1cc(C)n(-c2cc(Cc3cc(F)cc(C(F)(F)F)c3)ccn2)n1` [Example 28, 1-(4-(3-fluoro-5-(trifluoromethyl)benzyl)pyridin-2-yl)-N,5-dimethyl-1H-pyrazole-3-carboxamide], the EC50 was 31.6 nM and the Emax worked out at 95%.

With `CNC(=O)c1nn(-c2cc(Cc3cc(F)cc(C(F)(F)F)c3)ccn2)cc1C` [Example 57, 1-(4-(3-fluoro-5-(trifluoromethyl)benzyl)pyridin-2-yl)-N,4-dimethyl-1H-pyrazole-3-carboxamide], the EC50 is 3.16 nM and the Emax is 87%.

For `Cc1cnc(Cc2cc(F)cc(C(F)(F)F)c2)cc1-n1cc(C(N)=O)c(C)n1` [Example 52, 1-(2-(3-fluoro-5-(trifluoromethyl)benzyl)-5-methylpyridin-4-yl)-3-methyl-1H-pyrazole-4-carboxamide], the EC50 was 100 nM and the Emax turned out to be 100%.

Take `NC(=O)c1nn(-c2cccc(Cc3cc(F)cc(C(F)(F)F)c3)n2)cc1CO` [Example 51, 1-(6-(3-fluoro-5-(trifluoromethyl)benzyl)pyridin-2-yl)-4-(hydroxymethyl)-1H-pyrazole-3-carboxamide]: the EC50 is 501 nM and the Emax stood at 83%.

`CN(C)C(=O)c1ccn(-c2cc(Cc3cc(F)cc(C(F)(F)F)c3)ccn2)n1` [Example 32, 1-(4-(3-fluoro-5-(trifluoromethyl)benzyl)pyridin-2-yl)-N,N-dimethyl-1H-pyrazole-3-carboxamide]: the EC50 is 200 nM and the Emax worked out at 75%.

Consider `NC(=O)c1cnn(-c2ccnc(Cc3cc(F)cc(C(F)(F)F)c3)c2)c1` [Example 2, 1-(2-(3-fluoro-5-(trifluoromethyl)benzyl)pyridin-4-yl)-1H-pyrazole-4-carboxamide], for which the EC50 is 501 nM and the Emax worked out at 90%.

In the case of `COCCNC(=O)c1cn(-c2ccnc(Cc3cc(F)cc(C(F)(F)F)c3)c2)nc1C` [Example 21, 1-(2-(3-fluoro-5-(trifluoromethyl)benzyl)pyridin-4-yl)-N-(2-methoxyethyl)-3-methyl-1H-pyrazole-4-carboxamide], the EC50 is 39.8 nM and the Emax is 96%.

With `Cc1cn(-c2cc(Cc3cc(F)cc(C(F)(F)F)c3)ccn2)nc1C(N)=O` [Example 10, 1-(4-(3-fluoro-5-(trifluoromethyl)benzyl)pyridin-2-yl)-4-methyl-1H-pyrazole-3-carboxamide], the EC50 was 79.4 nM and the Emax came to 83%.

Consider `CNC(=O)c1ccn(-c2cc(Cc3cc(F)cc(C(F)(F)F)c3)ccn2)n1` [Example 31, 1-(4-(3-fluoro-5-(trifluoromethyl)benzyl)pyridin-2-yl)-N-methyl-1H-pyrazole-3-carboxamide], for which the EC50 was 20 nM and the Emax amounted to 87%.

As to `NC(=O)c1ccn(-c2cc(Cc3cc(F)cc(C(F)(F)F)c3)ccn2)n1` [Example 9, 1-(4-(3-fluoro-5-(trifluoromethyl)benzyl)pyridin-2-yl)-1H-pyrazole-3-carboxamide], the EC50 is 100 nM and the maximal response (Emax) was 85%.

For the compound `CNC(=O)c1cn(-c2cc(Cc3cc(F)cc(C(F)F)c3)ccn2)nc1C` [Example 45, 1-(4-(3-(difluoromethyl)-5-fluorobenzyl)pyridin-2-yl)-N,3-dimethyl-1H-pyrazole-4-carboxamide], the EC50 was 200 nM and the Emax is 91%.

Compound `Cc1nn(-c2cc(Cc3cc(F)cc(C(F)F)c3)ccn2)c(CO)c1C(N)=O` [Example 44, 1-(4-(3-(difluoromethyl)-5-fluorobenzyl)pyridin-2-yl)-5-(hydroxymethyl)-3-methyl-1H-pyrazole-4-carboxamide] showed an Emax of 101%.

The compound `CNC(=O)c1c(C)nn(-c2cc(Cc3cc(F)cc(C(F)(F)F)c3)ccn2)c1CO` [Example 43, 1-(4-(3-fluoro-5-(trifluoromethyl)benzyl)pyridin-2-yl)-5-(hydroxymethyl)-N,3-dimethyl-1H-pyrazole-4-carboxamide] yielded an Emax of 101%.

Turning to `Cc1nn(-c2cc(Cc3cc(F)cc(C(F)(F)F)c3)ccn2)cc1C(N)=O` [Example 5, 1-(4-(3-fluoro-5-(trifluoromethyl)benzyl)pyridin-2-yl)-3-methyl-1H-pyrazole-4-carboxamide], the EC50 is 15.8 nM and the Emax came out at 94%.

With `CNC(=O)c1cnn(-c2cc(Cc3cc(F)cc(C(F)(F)F)c3)ccn2)n1` [Example 56, 2-(4-(3-fluoro-5-(trifluoromethyl)benzyl)pyridin-2-yl)-N-methyl-2H-1,2,3-triazole-4-carboxamide], the EC50 was 100 nM and the maximum response (Emax) came to 84%.

In the case of `NC(=O)c1cn(-c2ccnc(Cc3cc(F)cc(C(F)(F)F)c3)c2)nc1Cl` [Example 22, 3-chloro-1-(2-(3-fluoro-5-(trifluoromethyl)benzyl)pyridin-4-yl)-1H-pyrazole-4-carboxamide], the EC50 was 15.8 nM and the Emax worked out at 96%.

Turning to `NC(=O)c1ccn(-c2ccnc(Cc3cc(F)cc(C(F)(F)F)c3)c2)n1` [Example 29, 1-(2-(3-fluoro-5-(trifluoromethyl)benzyl)pyridin-4-yl)-1H-pyrazole-3-carboxamide], the EC50 was 1260 nM and the Emax came out at 86%.

In the case of `Cc1nn(-c2ccnc(Cc3cc(F)cc(C(F)(F)F)c3)c2)cc1C(=O)N1CCCC1` [Example 16, (1-(2-(3-fluoro-5-(trifluoromethyl)benzyl)pyridin-4-yl)-3-methyl-1H-pyrazol-4-yl)(pyrrolidin-1-yl)methanone], the EC50 was 31.6 nM and the Emax worked out at 93%.
